{
  "source": "patent US20240116994A1",
  "about": "“Peptides And Use Thereof For Diagnosing And Treating Antiphospholipid Syndrome” (UNIVERSITE DE GENEVE, priority 2021, published 2024)",
  "molecules": {"B1": {"name": "Dom MI: recombinant Domain I-II of β2GP1 (protein)", "chain": "GRTCPKPDDLPFSTVVPLKTFYEPGEEITYSCKPGYVSRGGMRKFICPLTGLWPINTLKCTPRVCPFAGILENGAVRYTTFEYPNTISFSCNTGFYLNGADSAKCTEEGKWSPELPVCAP"}},
  "key": {"[1]": {"system": "aPL (pool from APS patients)", "assay": "Determination of aPL by ELISA on coated peptides / biotinylated peptides (custom immunoassay)", "type": "binding, Human", "details": "for increase fold mean of aPL interaction relative to β2GP1: ELISA, 1/10 dilution of aPL pool, reference reduced β2GP1 (FIG. 1A)", "description": "Determination of aPL by ELISA—MaxiSorp™ 96 well plates (Nunc) or Streptavidin plate (Thermofisher) were coated with 10 μg/ml recombinant domains of β2GP1, peptides or biotinylated-peptide prior to incubation with aPLA. Secondary anti-human antibodies conjugated to IR800CW (Rockland) or HRP were used. Protein- or peptide-bound antibodies were detected and quantified by the Odyssey system (Li-Cor Biosciences) or absorbance in optical densities (OD) was determined at 405 nm (molecular Devices™ Filtermax).\n(§1) The de Groot's research group has pointed at the importance of hydrophobic character of the plate during coating of R39-R43 epitope. In order to abrogate of the plate-dependent aPL binding, the Ia-1 and Ib-1 peptides as well as the R39-R43 with a biotin at their N-terminal were synthetized and coated a streptavidin plate. In this configuration, the different peptides are flag oriented in the space preventing any interaction with the plate. It was thus observed that the flag-type orientation of R39-R43-biot leads to 8.52×more interaction with aPL while they show 9.63×more binding for Ib-1-biot presenting the same position. […] The surface plasmon resonance (SPR) technique is used to determine the relative avidity of aPL for R39-R43-biot and Ib-1-biot. The interaction between aPL and immobilized R39-R43-biot or Ib-1-biot is monitored by flowing various concentrations of aPL over a R39-R43-biot- or Ib-1-biot-coated chip surface (FIG. 1C). Through SPR experiments, it appears that aPL avidity for Ib-1-biot presents a resonance unit (RU) of 51.49 at 1/1,000 of dilution and a RU of 27.61 at 1/10,000 of dilution while, at the same dilution, it present a RU of 27.36 and a RU of 17.99 with R39-R43-biot, respectively (FIG. 1C). However, at higher concentrations, the peptides seems to show no differences in the interactions with aPL. […] Considering that IgG valency, it was decided to generate a dimeric Ib-1-biot peptide (Ib-1-biot-2x). This new polypeptide carries thus two optimized epitopes which have the opportunity to interact with two Fab fragment present on aPL. […] At higher concentration, i.e dilution of 1/100, the avidity for dimeric peptide is 28×more than for the monomeric (FIG. 1D).\nIt was performed a peptide substitution scan of Ib-1-biot VSRGGMRKKKKPLTG (SEQ ID NO: 6) carrying the optimized epitope Ib-1-biot and based on an exchange of the underlined amino acid positions with the 20 main amino acids. The resulting peptide microarrays contained 140 different peptides. It was observed that the peptide substitution of the position n° 1, 2, 12 and 15 have significant influences on the ability to interact with aPL from patients 1, 2, 3, 4 and, in particular, form the plasma pool. Indeed, the substitution of the position 1, 12 or 15 by an Arginine (R) or a Lysine (K) increases the avidity of the peptide for all aPL from patients. […] In this context, the enhancement relative to Ib-1.0-biot-2x of identified peptides was evaluated (FIG. 2A). […] However, streptavidin being known to produce unspecific binding, it was used the ratio between aPL and a pool of human plasma as control (B/B0) (FIG. 2B, upper panel). This representation therefore allows to distinguish the real levels of interactions. It was then performed a dilution assay from dilution of 1/100 to 1/1,200,000 and it was observed relevant differences between the different identified peptides. By comparison of area under the curve (AUC), it was possible to detect the most prone-interacting peptide with aPL. Thus, the peptide IIa-8.0-biot-2x obtained the higher AUC (FIG. 2B, bottom panel). To formally quantify the ability of aPL to interact with IIa-8.0-biot-2x, it was monitored by flowing various concentrations of aPL over a IIa-8.0-biot-2x-coated chip surface (FIG. 2C). […] In FIG. 2C, bottom panel, it can be appreciated more precisely the improvement of the quality of interactions. […]"}, "[2]": {"system": "aPL from a pool of 13 Human patients", "assay": "Surface plasmon resonance, aPL flown over biotin-peptide-coated SA chip (BIAcore X100)", "type": "binding", "details": "for sustained interaction / stability of binding with aPL (shape of SPR curves): stabilization curves", "description": "The kinetics and affinity of protein-protein and protein-lipid interactions were determined using a BIAcore X100 instrument. 1 mg/ml of biotin-tagged peptide (ligand) was immobilized using a sensor chip SA (GE Healthcare) surface, whereas aPL from a pool of 13 Human patients were flown as analyte. The first flow cell of the sensor chip was used as a control surface (no protein), whereas the second flow cell was employed as the active surface. A range of dilution of aPL analytes prepared in the same buffer was injected on both flow cell surfaces at a flow rate of 30 μl/min. Association and dissociation times for each protein injection were set at 90 and 120 s, respectively. In all cases, sensorgrams were obtained from three different dilutions of aPL.\nas §1\nIt was performed a peptide substitution scan of Ib-1-biot VSRGGMRKKKKPLTG (SEQ ID NO: 6) carrying the optimized epitope Ib-1-biot and based on an exchange of the underlined amino acid positions with the 20 main amino acids. The resulting peptide microarrays contained 140 different peptides. It was observed that the peptide substitution of the position n° 1, 2, 12 and 15 have significant influences on the ability to interact with aPL from patients 1, 2, 3, 4 and, in particular, form the plasma pool. Indeed, the substitution of the position 1, 12 or 15 by an Arginine (R) or a Lysine (K) increases the avidity of the peptide for all aPL from patients. […] In this context, the enhancement relative to Ib-1.0-biot-2x of identified peptides was evaluated (FIG. 2A). […] However, streptavidin being known to produce unspecific binding, it was used the ratio between aPL and a pool of human plasma as control (B/B0) (FIG. 2B, upper panel). This representation therefore allows to distinguish the real levels of interactions. It was then performed a dilution assay from dilution of 1/100 to 1/1,200,000 and it was observed relevant differences between the different identified peptides. By comparison of area under the curve (AUC), it was possible to detect the most prone-interacting peptide with aPL. Thus, the peptide IIa-8.0-biot-2x obtained the higher AUC (FIG. 2B, bottom panel). […]"}, "[3]": {"system": "binding of aPL to IIa-8.0-biot-2x", "assay": "Inhibition experiments: remaining reactivity of pre-treated aPL on IIa-8.0-biot-2x ELISA", "set-up": "species or system Human", "details": "aPL pool sera preincubated 90 min at RT with 1, 10 and 10011 g/ml peptide", "description": "To examine the functional ability of IIa-5.0, IIa-7.1, IIa-8.0 peptides and R39-R43 to inhibit the activity of pool of aPL isolated from APS patients, the remaining reactivity of aPL was evaluated for IIa-8.0-biot-2x which had previously been treated with increasing concentration of peptides. […] The flag-type orientation prevents potential interactions with the plate or with itself, particularly in solution. Streptavidin magnetic beads associated with IIa-5.0-biot-2x, IIa-7.1-biot-2x and Ha-8.0-biot-2x peptides have been generated. aPL was treated with increasing concentrations of beads before to measure the remaining binding activity of aPL on IIa-8.0-biot-2x ELISA (FIG. 7C).\nTo assess the ability of IIa-5.0-2x, IIa-7.1-2x and IIa-8.0-2x to inhibit in vitro the binding of aPL to IIa-8.0-biot-2x. aPL pool sera were preincubated for 90 min at RT with increasing concentrations (1, 10 and 10011 g/ml) of monomeric, dimeric IIa-5.0, IIa-7.1 and IIa-8.0 peptides and of IIa-5.0-biot-2x, IIa-7.1-biot-2x and IIa-8.0-biot-2x-associated beads (15, 30 and 60 pmol). 120 pmol correspond to the amount of IIa-8.0-biot-2x coated in well of Streptavidin Coated High Capacity Plates 96 well plates (Thermofisher). After the pre-incubation time, the serum was added anti-b2GP1 IgG (anti-IIa-8.0-2x) ELISA according to the protocol."}, "[4]": {"details": "after a dilution of 100× of aPL (1/1,000) (FIG. 1B)"}, "[5]": {"details": "streptavidin plate, N-terminal biotin, 1/10 dilution of aPL pool (FIG. 1B)"}, "[6]": {"details": "aPL at 1/1,000 of dilution (FIG. 1C)"}, "[7]": {"details": "aPL at 1/10,000 of dilution (FIG. 1C)"}},
  "note": "Where no end group is shown, it is not given here. The star is where a group is joined. Biotin = O=C1N[C@H]2[C@H](CS[C@H]2CCCCC(=O)*)N1",
  "data": [
    {"molecule": "Ib-1-biot: monomeric Ib-1 peptide with a biotin at its N-terminal (Biotin-VSRGGMRKKKKPLTG)", "values": [
      {"measurement": "interaction with aPL of flag-oriented biotinylated peptide versus nude peptide", "setting": "[1]; [4]", "value": 4.3, "unit": "×"},
      {"measurement": "interaction with aPL of flag-oriented biotinylated peptide versus nude peptide", "setting": "[1]; [5]", "value": 9.63, "unit": "×"},
      {"measurement": "resonance unit (RU), aPL avidity", "setting": "[2]; [6]", "value": 51.49, "unit": "RU"},
      {"measurement": "resonance unit (RU), aPL avidity", "setting": "[2]; [7]", "value": 27.61, "unit": "RU"},
      {"measurement": "sustained interaction / stability of binding with aPL (shape of SPR curves)", "setting": "[2]", "value": "neither R39-R43-biot nor Ib-1-biot have sustained interaction with aPL"}
    ]},
    {"molecule": "R39-R43-biot: R39-R43 peptide with a biotin at its N-terminal (Biotin-VSRGGMRKFICPLTG) [reference compound]", "values": [
      {"measurement": "interaction with aPL of flag-oriented biotinylated peptide versus nude peptide", "setting": "[1]; [4]", "value": 2.83, "unit": "×"},
      {"measurement": "interaction with aPL of flag-oriented biotinylated peptide versus nude peptide", "setting": "[1]; [5]", "value": 8.52, "unit": "×"},
      {"measurement": "resonance unit (RU), aPL avidity", "setting": "[2]; [6]", "value": 27.36, "unit": "RU"},
      {"measurement": "resonance unit (RU), aPL avidity", "setting": "[2]; [7]", "value": 17.99, "unit": "RU"},
      {"measurement": "sustained interaction / stability of binding with aPL (shape of SPR curves)", "setting": "[2]", "value": "neither R39-R43-biot nor Ib-1-biot have sustained interaction with aPL"}
    ]},
    {"molecule": "RSRGGMRKRKKPLTG [IIa-8.0]", "values": [
      {"measurement": "inhibition of aPL binding to IIa-8.0-biot-2x ELISA by peptide in solution", "setting": "[3]", "value": "prevents their further binding to IIa-8.0-biot-2x ELISA"}
    ]},
    {"molecule": "VSRGGMRKFICPLTG [R39-R43, reference compound]", "values": [
      {"measurement": "increase fold mean of aPL interaction relative to β2GP1", "setting": "[1]", "value": "same ability to interact with aPL than β2GP1"},
      {"measurement": "inhibition of aPL binding to IIa-8.0-biot-2x ELISA by peptide in solution", "setting": "[3]", "value": "failed to significantly inhibit"}
    ]},
    {"molecule": "VSRGGMRKFIKPLTG [Ia-1, corresponding to the first substitution scan]", "values": [
      {"measurement": "increase fold mean of aPL interaction relative to β2GP1", "setting": "[1]", "value": 3.47, "unit": "fold"}
    ]},
    {"molecule": "VSRGGMRKKKKPLTG [Ib-1, corresponding to the second substitution scan]", "values": [
      {"measurement": "increase fold mean of aPL interaction relative to β2GP1", "setting": "[1]", "value": 5.5, "unit": "fold"}
    ]},
    {"molecule": "VSRGGMRKRKKKKTG [IIa-7.1]", "values": [
      {"measurement": "inhibition of aPL binding to IIa-8.0-biot-2x ELISA by peptide in solution", "setting": "[3]", "value": "prevents their further binding to IIa-8.0-biot-2x ELISA"}
    ]},
    {"molecule": "VSRGGMRKRKKPLTK [IIa-5.0]", "values": [
      {"measurement": "inhibition of aPL binding to IIa-8.0-biot-2x ELISA by peptide in solution", "setting": "[3]", "value": "prevents their further binding to IIa-8.0-biot-2x ELISA"}
    ]},
    {"molecule": "B1", "values": [
      {"measurement": "increase fold mean of aPL interaction relative to β2GP1", "setting": "[1]", "value": "same ability to interact with aPL than β2GP1"}
    ]}
  ]
}
